From article PMC4301037, “Identification and Structure–Function Analysis of Subfamily Selective G Protein-Coupled Receptor Kinase Inhibitors” (ACS Chemical Biology, 2014)
Read-outs that look alike come from different tables or passages of the source.

What was measured:
GRK2 [1] = biological target: T1, GRK2 (Bos taurus, UniProt P21146, S670A); experiment: In vitro phosphorylation assay (tubulin, 5 μM ATP), GRK2; format: biochemical, bovine; settings: for less potent than GSK180736A against GRK2: relative to GSK180736A
T1 construct: made in house
T1 sequence (P21146 1-689 S670A): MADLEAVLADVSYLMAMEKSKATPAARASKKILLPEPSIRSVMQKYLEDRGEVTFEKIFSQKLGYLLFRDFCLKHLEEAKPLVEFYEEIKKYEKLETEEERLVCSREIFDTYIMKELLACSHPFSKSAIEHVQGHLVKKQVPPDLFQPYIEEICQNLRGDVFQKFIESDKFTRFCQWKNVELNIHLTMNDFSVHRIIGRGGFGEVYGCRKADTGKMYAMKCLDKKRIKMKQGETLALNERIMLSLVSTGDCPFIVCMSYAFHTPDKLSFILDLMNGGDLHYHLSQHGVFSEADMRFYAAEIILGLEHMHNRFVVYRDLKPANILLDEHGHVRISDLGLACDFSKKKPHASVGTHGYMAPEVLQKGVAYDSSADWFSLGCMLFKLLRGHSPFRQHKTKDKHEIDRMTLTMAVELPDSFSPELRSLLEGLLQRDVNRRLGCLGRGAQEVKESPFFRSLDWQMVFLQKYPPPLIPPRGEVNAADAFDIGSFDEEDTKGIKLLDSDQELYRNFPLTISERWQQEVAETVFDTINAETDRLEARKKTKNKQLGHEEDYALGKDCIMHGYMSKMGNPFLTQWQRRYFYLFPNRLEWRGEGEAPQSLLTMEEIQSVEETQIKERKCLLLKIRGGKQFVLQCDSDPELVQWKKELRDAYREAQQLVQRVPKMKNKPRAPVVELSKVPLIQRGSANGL

GRK1, 2, and 5 and PKA = experiment: Ssel selectivity score calculated from inhibition of GRK1, 2, 5 and PKA; settings: selectivity score from inhibition of GRK1, 2, 5 and PKA; <0.5 selective
protein kinase A (PKA) = biological target: T2, protein kinase A (PKA) (Mus musculus, UniProt P05132); experiment: DSF retest (confirmation), PKA; format: binding; settings: for PKA Tm: 0.2 mg mL^–1 kinase; for PKA ΔTm: relative to intrinsic melting point of the kinase
T2 construct: His tag (inferred from pET15b vector and Ni-NTA column) (N); host or cells: E. coli Rosetta(DE3)pLysS
Description: Fourteen compounds (Figure 1a–c), including all GRK2 hits except staurosporine, and the most stabilizing pyrrolopyrimidine-containing compounds were obtained from GSK and retested using DSF on GRKs representing each vertebrate subfamily (GRK1, 2, and 5) (Table 1). […] The ability of these compounds to shift the Tm of the related AGC family kinase member protein kinase A (PKA) was also assessed (Table 1). In no case was ΔTm greater for PKA than for one of the tested GRKs. […]. There was no correlation for GRK1 (Figure 2c).
DSF was conducted using a ThermoFluor plate reader (Johnson & Johnson) in a buffer containing 20 mM HEPES, pH 7.0, 5 mM MgCl2, 2 mM DTT, and 1 mM CHAPS with 0.2 mg mL^–1 final concentration of GRK or PKA and 100 μM 1-anilinonaphthalene-8-sulfonic acid.[14]

GRK1 [2] = biological target: T3, GRK1 (Bos taurus, UniProt P28327); experiment: DSF retest (confirmation), GRK1; format: binding, bovine; settings: for GRK1 Tm: 0.2 mg mL^–1 kinase; for GRK1 ΔTm: relative to intrinsic melting point of the kinase
T3 construct: Bovine GRK1_1–535, bovine and human GRK2S670A; made in house
T3 sequence (P28327 1-535): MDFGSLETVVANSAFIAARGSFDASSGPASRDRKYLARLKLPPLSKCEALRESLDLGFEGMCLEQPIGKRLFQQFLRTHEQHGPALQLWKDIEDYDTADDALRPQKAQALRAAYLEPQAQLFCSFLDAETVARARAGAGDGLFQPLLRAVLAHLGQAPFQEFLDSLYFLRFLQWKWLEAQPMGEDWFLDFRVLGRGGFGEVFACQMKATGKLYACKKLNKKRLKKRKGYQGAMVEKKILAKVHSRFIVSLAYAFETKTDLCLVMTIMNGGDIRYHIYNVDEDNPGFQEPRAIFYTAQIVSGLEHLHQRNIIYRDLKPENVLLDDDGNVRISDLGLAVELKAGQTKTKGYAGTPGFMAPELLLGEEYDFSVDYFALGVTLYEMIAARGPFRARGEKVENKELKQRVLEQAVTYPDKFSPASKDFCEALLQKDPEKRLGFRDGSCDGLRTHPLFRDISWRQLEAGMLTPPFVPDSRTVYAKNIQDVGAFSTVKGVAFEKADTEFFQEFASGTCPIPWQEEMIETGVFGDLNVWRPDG

GRK5 [3] = biological target: T4, GRK5 (Bos taurus, UniProt P43249); experiment: DSF retest (confirmation), GRK5; format: binding, bovine; settings: for GRK5 Tm: 0.2 mg mL^–1 kinase; for GRK5 ΔTm: relative to intrinsic melting point of the kinase
T4 construct: when using full-length kinases as the receptor[37] instead of isolated kinase domains; made in house

bovine GRK5 = biological target: T5, bovine GRK5 (Bos taurus, UniProt P43249); experiment: Primary DSF inhibitor screen, GRK5; format: binding; settings: 10 μM compound, 2 μM kinase, relative to DMSO control; read-out: ΔTm, primary screen, GRK5
T5 construct: when using full-length kinases as the receptor[37] instead of isolated kinase domains; made in house

PKA = biological target: T6, PKA (Mus musculus, UniProt P05132); experiment: PKA inhibition assay (ADP-Glo, CREBtide, 100 μM ATP); format: biochemical
T6 construct: His tag (inferred from pET15b vector and Ni-NTA column) (N); host or cells: E. coli Rosetta(DE3)pLysS

human GRK2S670A = biological target: T7, human GRK2S670A (Homo sapiens, UniProt P25098, S670A); experiment: Primary DSF (differential scanning fluorimetry) inhibitor screen, GRK2; format: binding; settings: 10 μM compound; for ΔTm, primary screen, GRK2 / ΔTm at 10 µM: 2 μM kinase, relative to DMSO control; for ΔTm at 10 µM: read-out: ΔTm, primary screen, GRK2; for rank in the primary screen, GRK2: rank ordering of compounds in primary DSF screen
T7 construct: when using full-length kinases as the receptor[37] instead of isolated kinase domains; made in house
T7 sequence (P25098 1-689 S670A): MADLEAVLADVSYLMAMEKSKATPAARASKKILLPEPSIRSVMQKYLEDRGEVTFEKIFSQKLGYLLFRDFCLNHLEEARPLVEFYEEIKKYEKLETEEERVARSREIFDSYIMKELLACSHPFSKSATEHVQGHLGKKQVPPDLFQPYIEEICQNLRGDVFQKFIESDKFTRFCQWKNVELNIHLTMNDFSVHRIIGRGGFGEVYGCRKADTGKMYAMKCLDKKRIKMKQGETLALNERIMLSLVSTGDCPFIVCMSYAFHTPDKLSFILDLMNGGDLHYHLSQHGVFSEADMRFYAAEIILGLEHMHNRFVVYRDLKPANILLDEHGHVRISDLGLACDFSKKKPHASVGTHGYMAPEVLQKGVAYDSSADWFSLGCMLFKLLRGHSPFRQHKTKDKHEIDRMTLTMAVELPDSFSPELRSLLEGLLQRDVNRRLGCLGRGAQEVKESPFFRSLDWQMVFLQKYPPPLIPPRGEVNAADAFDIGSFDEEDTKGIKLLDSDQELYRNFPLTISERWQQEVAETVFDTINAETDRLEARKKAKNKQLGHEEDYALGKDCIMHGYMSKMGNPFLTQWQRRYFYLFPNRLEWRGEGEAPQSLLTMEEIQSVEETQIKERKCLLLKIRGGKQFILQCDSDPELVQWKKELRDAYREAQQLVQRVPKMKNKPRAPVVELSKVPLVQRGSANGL

GRK1 [4] = biological target: T3, GRK1; experiment: In vitro phosphorylation assay (tubulin, 5 μM ATP), GRK1; format: biochemical, bovine
GRK5 [5] = biological target: T4, GRK5; experiment: In vitro phosphorylation assay (tubulin, 5 μM ATP), GRK5; format: biochemical, bovine
ROCK1 = settings: relative to GSK180736A (substitution effect); cited from earlier work
GRK2 [6] = biological target: T8, GRK2 (Homo sapiens, UniProt P25098, S670A); experiment: DSF retest (confirmation), GRK2; format: binding; settings: for GRK2 Tm: 0.2 mg mL^–1 kinase; for GRK2 ΔTm: relative to intrinsic melting point of the kinase
T8 construct: made in house
T8 sequence (P25098 1-689 S670A): T7 sequence (P25098 1-689 S670A)

224 kinases = system: 224 kinases; set-up: method as in ChEMBL database; settings: at 1 μM; ref ChEMBL database; cited from earlier work
[7] = logarithm of IC50 (−3.3 corresponds to 0.5 mM, footnote c), 438 nM PKA, 100 μM ATP, CREBtide, read-out: PKA log IC50 (converted)

T4 sequence (P43249 whole entry, the tested form may be a part): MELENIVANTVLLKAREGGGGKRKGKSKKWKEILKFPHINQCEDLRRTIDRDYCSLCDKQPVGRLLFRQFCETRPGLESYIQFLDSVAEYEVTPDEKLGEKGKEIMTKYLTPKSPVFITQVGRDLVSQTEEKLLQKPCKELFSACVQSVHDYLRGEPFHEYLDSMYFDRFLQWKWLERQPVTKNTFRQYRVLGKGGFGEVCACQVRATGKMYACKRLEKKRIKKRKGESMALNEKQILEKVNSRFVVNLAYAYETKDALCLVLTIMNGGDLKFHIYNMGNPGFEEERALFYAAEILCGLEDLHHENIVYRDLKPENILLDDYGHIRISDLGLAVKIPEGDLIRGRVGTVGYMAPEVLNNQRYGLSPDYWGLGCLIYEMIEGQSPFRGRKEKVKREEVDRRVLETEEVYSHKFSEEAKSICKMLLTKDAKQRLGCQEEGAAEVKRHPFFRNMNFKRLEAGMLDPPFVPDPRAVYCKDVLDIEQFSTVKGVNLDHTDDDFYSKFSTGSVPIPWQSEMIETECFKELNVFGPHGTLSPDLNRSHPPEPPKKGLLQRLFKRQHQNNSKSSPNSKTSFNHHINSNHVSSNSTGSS
T5 sequence (P43249 whole entry, the tested form may be a part): as above

GRK2 fold (increase in potency relative to paroxetine) (GRK2 [1]) [fold]	PKA Tm (protein kinase A (PKA)) [°C]	PKA ΔTm (protein kinase A (PKA)) [°C]	GRK1 Tm (GRK1 [2]) [°C]	GRK1 ΔTm (GRK1 [2]) [°C]	GRK5 Tm (GRK5 [3]) [°C]	GRK5 ΔTm (GRK5 [3]) [°C]	ΔTm at 10 µM (bovine GRK5) [°C]	IC50 (PKA; [7]) [µM]	ΔTm at 10 µM (human GRK2S670A) [°C]	rank in the primary screen, GRK2 (human GRK2S670A)	GRK5 fold (increase in potency relative to paroxetine) (GRK5 [5]) [fold]	GRK2 Tm (GRK2 [6]) [°C]	GRK2 ΔTm (GRK2 [6]) [°C]	less potent than GSK180736A against GRK2 (GRK2 [1])	Compound	Ssel (GRK1, 2, and 5 and PKA)	IC50 (PKA; read-out: IC50 against PKA) [µM]	ΔTm, primary screen, GRK2 (human GRK2S670A) [°C]	GRK1 fold (increase in potency relative to paroxetine) (GRK1 [4]) [fold]	increase in potency of ROCK inhibition (ROCK1) [fold]	further results
0.50	45.9	0.5	23.2	3.3	27.3	0.6	2.29	200	3.78	6	0.20	49.0	11.4	about 1 log	CC1=C(C(=O)Nc2ccc3[nH]ncc3c2)C(c2ccc(F)cc2)NC(c2ccc(C(F)(F)F)nc2)=N1 (centres unmarked) [GSK317354A]	0.109	–	–	–	10	IC50 (GRK2 [1]; read-out: GRK2 log IC50 (converted)): 2.51 µM; IC50 (GRK1 [4]; read-out: GRK1 log IC50 (converted)): > 1000 µM; IC50 (GRK5 [5]; read-out: GRK5 log IC50 (converted)): 631 µM
0.040	50.6	5.2	24.6	4.7	28.0	1.3	3.48	12.6	2.94	8	3.2	45.0	7.4	2 log	CC1=C(C(=O)Nc2cc(Cl)c3[nH]ncc3c2)C(c2ccc(C(F)(F)F)cc2)CC(=O)N1 (centres unmarked) [GSK466317A]	1.001	< 100	2.9	0	–	number of other AGC kinases inhibited by more than 50% (224 kinases): more than 10

Compound	GRK2 fold (increase in potency relative to paroxetine) (GRK2 [1]) [fold]	PKA Tm (protein kinase A (PKA)) [°C]	PKA ΔTm (protein kinase A (PKA)) [°C]	GRK1 Tm (GRK1 [2]) [°C]	GRK1 ΔTm (GRK1 [2]) [°C]	GRK5 Tm (GRK5 [3]) [°C]	GRK5 ΔTm (GRK5 [3]) [°C]	ΔTm at 10 µM (bovine GRK5) [°C]	IC50 (PKA; [7]) [µM]	ΔTm at 10 µM (human GRK2S670A) [°C]	rank in the primary screen, GRK2 (human GRK2S670A)	GRK5 fold (increase in potency relative to paroxetine) (GRK5 [5]) [fold]	GRK2 Tm (GRK2 [6]) [°C]	GRK2 ΔTm (GRK2 [6]) [°C]	less potent than GSK180736A against GRK2 (GRK2 [1])	Ssel (GRK1, 2, and 5 and PKA)	IC50 (PKA; read-out: IC50 against PKA) [µM]	ΔTm, primary screen, GRK2 (human GRK2S670A) [°C]	GRK1 fold (increase in potency relative to paroxetine) (GRK1 [4]) [fold]	increase in potency of ROCK inhibition (ROCK1) [fold]	further results
CC1=C(C(=O)Nc2ccc3[nH]ncc3c2)C(c2ccc3ccccc3c2)CC(=O)N1 (centres unmarked) [GSK270822A]	0.10	51.9	6.5	24.6	4.7	29.4	2.6	3.92	50.1	3.82	5	2.0	47.8	10.3	–	0.883	< 100	3.8	1	5	–
